Data published in paper PMC9070039, “Synthesis and evaluation of antimicrobial activity, cytotoxic and pro-apoptotic effects of novel spiro-4H-pyran derivatives” (RSC Advances, 2019).
In brackets after ≈: the same amount, converted by molar mass.

Tests used:
S. aureus [1] = assay: Disk diffusion antibacterial test; format: cell-based, Staphylococcus aureus; settings: there called agar dilution method
Protocol: (§1) Antibacterial effects of spiro[indeno[2,1-c]pyridazine-9,4′-pyran]-3′,4-dicarbonitrile derivatives 5a–j were evaluated in vitro by using disk diffusion method against Gram-positive (S. aureus) and Gram negative (E. coli). The diameter of inhibition zone correlates to the sensitivity of a bacterium to an antibacterial agent. […] E. coli was resistant against all compounds tested (Table 2). Tetracycline and DMSO were used as positive control and negative control respectively. Next, the active compounds were analysed using MIC assay to determine the lowest concentration for inhibition. […] It seems due to the difference in structure of bacterial cell wall (i.e., the presence of outer membrane with lipid, lipopolysaccharide, and lipoprotein content in Gram negative bacteria), E. coli was resistant against the related synthetic compounds.
(§2) Antibacterial activity of the prepared synthetic compounds against the Gram-negative bacteria (E. coli; ATCC: 15922) and the Gram-positive bacteria (S. aureus; PTCC: 1112, International no. ATCC6538P) were examined by disk diffusion assay. Bacterial cultures were obtained from Persian Type Culture Collection, Tehran, Iran (PTCC). Isolated pure colonies from fresh grown bacteria were transferred from the plates into sterile normal saline solution and it was vortexed to form bacterial homogenous suspensions. The turbidity was then adjusted to 0.5 McFarland standard units, and the suspensions were poured over Mueller–Hinton agar (MHA) plates. Sterile filter paper disks were placed over these plates. The sterile disks were impregnated with the tested compounds. Positive control (tetracycline) and negative control ([…]) were used. To determine MIC, the concentrations of tested substance were prepared within the range from 30–5 mM. Incubate in incubator at 37 °C in 24 h for bacteria (Table 2).

E. coli = assay: Disk diffusion antibacterial test; format: cell-based, Escherichia coli; design: key: —: inactive at concentration 50 mM; settings: disc diffusion test, concentration 50 mM
Protocol: as §1, §2

S. aureus [2] = assay: MIC determination; format: cell-based; settings: Staphylococcus aureus; read-out: MICs (mM) S. aureus
Protocol: as §1, §2

A375 cells = assay: MTT cytotoxicity assay; format: cell-based; settings: Homo sapiens, A-375, 48 h
Protocol: (§3) At first, in order to compare anti-cancer properties, the synthesized compounds 5a–j were evaluated against A549 cells, MCF-7 cells, A375 cells, PC3 cells, LNCaP cells and HDF cells lines using the MTT colorimetric assay. The activity is expressed as 50% growth inhibitory concentration (IC50) values at 48 h. We used DMSO (1%) as negative control and Etoposide as positive control.
(§4) Human non-small-cell lung cancer A549 cells, human breast cancer MCF-7 cells, human malignant melanoma cells (A375), human prostate cancer cells (PC3 cells, LNCaP cells) and normal cells HDF (human dermal fibroblast) were received from Pasture Institute, Tehran, Iran. MCF-7 cells were grown in RPMI 1640 medium, A549 cells, A375 cells, PC3 cells, LNCaP cells and HDF cells were grown in DMEM medium. All media contain 10% fetal bovine serum (FBS), penicillin G, streptomycin 100 μg mL^−1 and 1% L-glutamine. The cells were cultured and incubated under humidified 5% CO2 atmosphere at 37 °C.
(§5) The effect of compounds treatment on the viability of cancer cell lines was measured by (3-(4,5-dimethylthiazol-2-yl)-2,5-diphenyl tetrazolium bromide or MTT) assay (MTT assay kit, Bio IDEA, CatNo: BI1017, Iran) based on the ability of live cells to cleave the tetrazolium ring to a molecule that absorb at […] as per the manufacturer's instructions.[33] Etoposide (was kindly provided by Dr A. Foroumadi, Tehran medical Science University, Iran) and dimethyl sulfoxide (or DMSO) was used as positive and negative controls, respectively.[34] Briefly, cells were plated in 96-well culture plates (5 × 10^3 cells per well). After 24 h incubation, the cells were treated with different concentrations of the compounds. After 48 h at 37 °C, the medium was removed and 100 μL of MTT reagent (1 mg mL^−1) was added to each well, and cells were further incubated at 37 °C for 4 h. The MTT solution was removed, 50 μL of DMSO was added to each well to dissolve formazan crystals, and the plates were gently shaken for 10 minutes, followed by reading with an ELISA plate reader (BiotekELx 800, USA). The 50% inhibition concentration (IC50) was defined as the concentration that inhibited cell proliferation by 50% when compared to DMSO treated cells (as negative control).

A549 cells [3] = assay: MTT cytotoxicity assay; format: cell-based; settings: Homo sapiens, 48 h
Protocol: as §3, §4, §5

HDF cells = assay: MTT cytotoxicity assay; format: cell-based; settings: 48 h, normal cells (human dermal fibroblast)
Protocol: as §3, §4, §5

LNCaP cells = assay: MTT cytotoxicity assay; format: cell-based; settings: Homo sapiens, 48 h
Protocol: as §3, §4, §5

MCF-7 cells = assay: MTT cytotoxicity assay; format: cell-based; settings: Homo sapiens, MCF7, 48 h
Protocol: as §3, §4, §5

PC3 cells = assay: MTT cytotoxicity assay; format: cell-based; settings: Homo sapiens, PC-3, 48 h
Protocol: as §3, §4, §5

A549 cells [4] = assay: DAPI staining assay; format: cell-based, human; settings: 24 h treatment
Protocol: as §3
DAPI staining assay was used to determine chromatin changes. A549 cells were seeded in six well plates (5 × 10^4 cells per well) containing 12 mm cover-slips and subsequently treated for compound 5a (sample or treated cells) and DMSO (control or untreated cells) for 24 h. Cells then were fixed with 3.7% paraformaldehyde, permeabilized in 0.5% (w/v) Triton X-100, 1% BSA (w/v) for 5 min, washed in PBS, and stained with DAPI (Sigma-Aldrich, USA). All images were taken by an inverted fluorescent microscope (Nikon Eclipse Ti-E).

Bax = assay: Real-time RT-PCR, Bax mRNA expression; format: cell-based, human; settings: A549 cells, 40 μM, 48 h
Source text: (§6) Finally, we confirmed that apoptosis mediated by mitochondria induces in A549 cells. It is well known that the anti-apoptotic Bcl-2 protein is localized on the outer mitochondrial membranes and antagonizes the action of pro-apoptotic Bax. The balance between these two proteins prevents translocation of cytochrome c from the mitochondria to cytoplasm and determines the apoptosis resistance. Down-regulation of Bcl-2 and/or up-regulation of Bax disturb this balance and leads to apoptosis (Fig. 3A).
(§7) For quantitative real-time RT-PCR analysis, after 48 h of treatment with 40 μM of related drug (5a), A549 cells was lysed and the total RNA was extracted using 500 μL of Trizol® reagent according to the protocol provided by the manufacturer (Invitrogen Life Technologies, Carlsbad, CA, USA) followed by reverse transcription into cDNA according to manufactures protocol (ReveretAid M-Mulv reverse transcriptase kit, Thermo Fisher Scientific, MA, USA). Real-time RT-PCR was then performed to amplify cDNA using SYBR green dye universal master mix (Bioron GmbH, Germany), on a Light Cycler 480 (Roche) using the primers for GAPDH-F: 5′-CAA GGT CAT CCA TGA CAA CTTTG-3′, R:5′-[…]-3′; Bax-F:5′-[…]-3′, R: 5′-[…]-3′and Bcl-2-F: 5′-[…]-3′, R: 5′- […]-3′for forty cycles. Data represent averaged copy number normalized to the GAPDH housekeeping gene. Primer synthesis was done by Pishgam Biotech Co. Tehran, Iran. […]

Bcl-2 = assay: Real-time RT-PCR, Bcl-2 mRNA expression; format: cell-based, human; settings: A549 cells, 40 μM, 48 h
Source text: as §6, §7

- MIC (S. aureus [2]): 5 mM (≈ 2140 µg/mL)
SMILES: Cn1c2c(c(=O)n(C)c1=O)C1(C(C#N)=C(N)O2)c2ccccc2-c2c1n[nH]c(=O)c2C#N (stereo not drawn) [5a, 7′-Amino-1′,3′-dimethyl-2′,3,4′-trioxo-1′,2,2′,3,3′,4′-hexahydrospiro[indeno[2,1-c]pyridazine-9,5′-pyrano[2,3-d]pyrimidine]-4,6′-dicarbonitrile]
- Sensitivity of S. aureus to compound (S. aureus [1]): sensitive
- Inhibition zone (mm) E. coli (E. coli): —
- IC50 (A375 cells): 70.72 ± 0.064 µM
- IC50 (A549 cells [3]): 40 ± 0.007 µM
- IC50 (HDF cells): > 100 µM
- IC50 (LNCaP cells): 32.15 ± 0.046 µM
- IC50 (MCF-7 cells): > 100 µM
- IC50 (PC3 cells): > 100 µM
- Chromatin changes / cell death by DAPI staining (A549 cells [4]): induced cell death in A549 cells
- Relative expression of Bax mRNA (Bax): up-regulated expression
- Relative expression of Bcl-2 mRNA (Bcl-2): down-regulation expression
